Legend:
Experiment in all cases: Carna kinome panel
Assay type in all cases: biochemical
Settings in all cases: read-out: % Inhibition at 10 μM of the test compound
[1] = molecular target: NuaK1 (Homo sapiens (Human), UniProt O60285)
[2] = molecular target: p70S6Kβ (Homo sapiens (Human), UniProt Q9UBS0)
[3] = molecular target: PKCθ (Homo sapiens (Human), UniProt Q04759)
[4] = molecular target: BRSK1 (Homo sapiens (Human), UniProt Q8TDC3)
[5] = molecular target: IKKα (Homo sapiens (Human), UniProt O15111)
[6] = molecular target: LYNa (Homo sapiens (Human), UniProt P07948)
[7] = molecular target: FGFR4 (Homo sapiens (Human), UniProt P22455)
[8] = molecular target: CK1α (Homo sapiens (Human), UniProt P48729)
[9] = molecular target: PBK (Homo sapiens (Human), UniProt Q96KB5)
[10] = molecular target: LOK (Homo sapiens (Human), UniProt O94804)
[11] = molecular target: MET (Homo sapiens (Human), UniProt P08581)
[12] = molecular target: MLK2_ Cascade (Homo sapiens (Human), UniProt Q02779)
[13] = molecular target: SRPK1 (Homo sapiens (Human), UniProt Q96SB4)
[14] = molecular target: PKCι (Homo sapiens (Human), UniProt P41743)
[15] = molecular target: EML4-ALK (Homo sapiens (Human), UniProt Q9UM73)
[16] = molecular target: PGK (Homo sapiens (Human), UniProt Q13976)
[17] = molecular target: PKCγ (Homo sapiens (Human), UniProt P05129)
[18] = molecular target: MSK1 (Homo sapiens (Human), UniProt O75582)
[19] = molecular target: MNK1 (Homo sapiens (Human), UniProt Q9BUB5)
[20] = molecular target: MARK4 (Homo sapiens (Human), UniProt Q96L34)
[21] = molecular target: EGFR (Homo sapiens (Human), UniProt P00533)
[22] = molecular target: PKCβ2 (Homo sapiens (Human), UniProt P05771)
[23] = molecular target: PKCβ1 (Homo sapiens (Human), UniProt P05771)
[24] = molecular target: PKCδ (Homo sapiens (Human), UniProt Q05655)
[25] = molecular target: PKD1 (Homo sapiens (Human), UniProt Q15139)
[26] = molecular target: PIM3 (Homo sapiens (Human), UniProt Q86V86)
[27] = molecular target: HIPK3 (Homo sapiens (Human), UniProt Q9H422)
[28] = molecular target: ACK (Homo sapiens (Human), UniProt Q07912)
[29] = molecular target: MAP3K2_Cascade (Homo sapiens (Human), UniProt Q9Y2U5)
[30] = molecular target: FYN(isoform a) (Homo sapiens (Human), UniProt P06241)
[31] = molecular target: ALK(R1275Q) (Homo sapiens (Human), UniProt Q9UM73, R1275Q)
[32] = molecular target: MRCKα (Homo sapiens (Human), UniProt Q5VT25)
[33] = molecular target: WNK3 (Homo sapiens (Human), UniProt Q9BYP7)
[34] = molecular target: EPHB4 (Homo sapiens (Human), UniProt P54760)
[35] = molecular target: MET(Y1235D) (Homo sapiens (Human), UniProt P08581, Y1235D)
[36] = molecular target: MAP3K4_Cascade (Homo sapiens (Human), UniProt Q9Y6R4)
[37] = molecular target: PDGFRα (Homo sapiens (Human), UniProt P16234)
[38] = molecular target: EGFR(T790M/L858R) (Homo sapiens (Human), UniProt P00533, L858R/T790M)
[39] = molecular target: DDR2 (Homo sapiens (Human), UniProt Q16832)
[40] = molecular target: MAPKAPK2 (Homo sapiens (Human), UniProt P49137)

Chain of EGFR (P00533 25-1210): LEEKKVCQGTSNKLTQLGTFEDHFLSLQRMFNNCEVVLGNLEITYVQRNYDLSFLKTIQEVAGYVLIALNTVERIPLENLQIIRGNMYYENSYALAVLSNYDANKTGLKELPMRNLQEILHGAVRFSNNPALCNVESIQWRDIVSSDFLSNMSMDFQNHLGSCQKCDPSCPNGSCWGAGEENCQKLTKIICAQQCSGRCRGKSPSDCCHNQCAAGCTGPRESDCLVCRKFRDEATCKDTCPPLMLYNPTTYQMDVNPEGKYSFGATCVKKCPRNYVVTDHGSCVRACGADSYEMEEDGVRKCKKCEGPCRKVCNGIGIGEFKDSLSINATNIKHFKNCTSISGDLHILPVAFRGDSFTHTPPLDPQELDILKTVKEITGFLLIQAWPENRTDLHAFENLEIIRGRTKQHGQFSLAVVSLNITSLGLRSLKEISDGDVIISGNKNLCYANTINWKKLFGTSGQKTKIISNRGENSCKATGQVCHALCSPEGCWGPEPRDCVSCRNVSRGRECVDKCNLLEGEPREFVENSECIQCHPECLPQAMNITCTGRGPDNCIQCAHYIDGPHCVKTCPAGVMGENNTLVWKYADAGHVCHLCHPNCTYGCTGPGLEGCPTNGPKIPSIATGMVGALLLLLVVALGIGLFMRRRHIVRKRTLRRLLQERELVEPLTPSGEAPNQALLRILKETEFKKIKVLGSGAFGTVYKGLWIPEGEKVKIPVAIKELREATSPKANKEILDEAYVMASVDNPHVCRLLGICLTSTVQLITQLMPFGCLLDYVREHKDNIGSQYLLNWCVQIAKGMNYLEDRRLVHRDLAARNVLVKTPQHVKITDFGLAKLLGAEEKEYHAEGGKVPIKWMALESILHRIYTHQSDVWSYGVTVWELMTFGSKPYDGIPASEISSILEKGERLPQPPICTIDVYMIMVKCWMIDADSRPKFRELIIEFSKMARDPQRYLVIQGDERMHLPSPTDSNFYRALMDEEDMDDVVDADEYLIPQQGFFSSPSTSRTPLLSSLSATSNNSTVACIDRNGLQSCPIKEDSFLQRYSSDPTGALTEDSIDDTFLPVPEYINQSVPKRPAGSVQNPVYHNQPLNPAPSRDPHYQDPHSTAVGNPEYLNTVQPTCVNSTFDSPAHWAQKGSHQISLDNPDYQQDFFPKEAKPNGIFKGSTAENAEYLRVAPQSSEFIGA
Chain of CK1α (P48729 whole entry): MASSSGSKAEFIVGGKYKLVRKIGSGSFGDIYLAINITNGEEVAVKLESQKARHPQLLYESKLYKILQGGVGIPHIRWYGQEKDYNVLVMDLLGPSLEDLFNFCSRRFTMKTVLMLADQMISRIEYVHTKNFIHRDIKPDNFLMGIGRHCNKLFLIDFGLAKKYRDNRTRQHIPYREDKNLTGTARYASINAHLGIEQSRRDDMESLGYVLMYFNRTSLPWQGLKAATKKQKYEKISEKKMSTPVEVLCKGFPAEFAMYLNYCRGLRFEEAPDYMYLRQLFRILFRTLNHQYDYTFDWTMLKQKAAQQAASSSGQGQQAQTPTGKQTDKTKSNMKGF
Chain of EPHB4 (P54760 16-987): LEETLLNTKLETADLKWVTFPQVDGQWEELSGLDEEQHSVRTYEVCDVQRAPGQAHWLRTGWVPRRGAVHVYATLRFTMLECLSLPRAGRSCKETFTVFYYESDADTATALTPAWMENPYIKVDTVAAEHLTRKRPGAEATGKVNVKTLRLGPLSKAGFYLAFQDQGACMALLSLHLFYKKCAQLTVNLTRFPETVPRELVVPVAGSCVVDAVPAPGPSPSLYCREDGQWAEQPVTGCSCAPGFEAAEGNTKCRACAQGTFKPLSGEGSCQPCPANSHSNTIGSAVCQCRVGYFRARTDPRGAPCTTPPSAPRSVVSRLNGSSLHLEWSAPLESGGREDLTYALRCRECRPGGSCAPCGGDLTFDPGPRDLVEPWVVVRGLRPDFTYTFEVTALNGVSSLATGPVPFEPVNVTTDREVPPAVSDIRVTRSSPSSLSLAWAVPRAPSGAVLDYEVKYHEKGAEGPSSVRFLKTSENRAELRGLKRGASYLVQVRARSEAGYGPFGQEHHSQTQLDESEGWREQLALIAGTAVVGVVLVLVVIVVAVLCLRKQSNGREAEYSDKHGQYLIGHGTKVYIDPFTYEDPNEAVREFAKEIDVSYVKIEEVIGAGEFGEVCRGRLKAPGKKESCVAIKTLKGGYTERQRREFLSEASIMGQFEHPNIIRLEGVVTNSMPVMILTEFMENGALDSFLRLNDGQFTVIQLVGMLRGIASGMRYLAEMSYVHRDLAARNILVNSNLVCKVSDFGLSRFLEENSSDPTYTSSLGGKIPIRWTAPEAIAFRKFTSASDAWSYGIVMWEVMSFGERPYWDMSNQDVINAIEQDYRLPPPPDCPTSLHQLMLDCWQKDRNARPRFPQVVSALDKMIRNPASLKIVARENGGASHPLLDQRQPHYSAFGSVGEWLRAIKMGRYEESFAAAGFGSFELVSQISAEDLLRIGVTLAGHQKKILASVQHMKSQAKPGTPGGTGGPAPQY
Chain of PKCθ (Q04759 whole entry): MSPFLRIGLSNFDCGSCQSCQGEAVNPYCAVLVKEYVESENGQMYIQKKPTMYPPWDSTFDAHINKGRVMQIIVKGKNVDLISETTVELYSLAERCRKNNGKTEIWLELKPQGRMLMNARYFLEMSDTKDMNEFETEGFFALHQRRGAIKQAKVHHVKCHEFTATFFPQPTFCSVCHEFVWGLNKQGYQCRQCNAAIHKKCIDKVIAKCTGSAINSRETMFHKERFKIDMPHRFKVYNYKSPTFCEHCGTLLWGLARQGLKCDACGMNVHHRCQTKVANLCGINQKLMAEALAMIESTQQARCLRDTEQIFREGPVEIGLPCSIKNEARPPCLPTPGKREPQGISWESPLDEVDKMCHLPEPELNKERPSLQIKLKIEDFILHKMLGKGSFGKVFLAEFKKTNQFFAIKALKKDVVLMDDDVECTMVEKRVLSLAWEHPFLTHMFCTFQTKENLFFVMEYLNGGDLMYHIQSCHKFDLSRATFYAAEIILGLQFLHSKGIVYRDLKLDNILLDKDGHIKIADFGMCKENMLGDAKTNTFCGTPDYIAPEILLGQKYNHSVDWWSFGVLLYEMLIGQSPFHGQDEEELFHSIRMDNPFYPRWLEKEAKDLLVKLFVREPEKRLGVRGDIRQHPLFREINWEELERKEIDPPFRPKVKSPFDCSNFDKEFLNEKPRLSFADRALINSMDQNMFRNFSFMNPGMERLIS
Chain of PKCι (P41743 whole entry): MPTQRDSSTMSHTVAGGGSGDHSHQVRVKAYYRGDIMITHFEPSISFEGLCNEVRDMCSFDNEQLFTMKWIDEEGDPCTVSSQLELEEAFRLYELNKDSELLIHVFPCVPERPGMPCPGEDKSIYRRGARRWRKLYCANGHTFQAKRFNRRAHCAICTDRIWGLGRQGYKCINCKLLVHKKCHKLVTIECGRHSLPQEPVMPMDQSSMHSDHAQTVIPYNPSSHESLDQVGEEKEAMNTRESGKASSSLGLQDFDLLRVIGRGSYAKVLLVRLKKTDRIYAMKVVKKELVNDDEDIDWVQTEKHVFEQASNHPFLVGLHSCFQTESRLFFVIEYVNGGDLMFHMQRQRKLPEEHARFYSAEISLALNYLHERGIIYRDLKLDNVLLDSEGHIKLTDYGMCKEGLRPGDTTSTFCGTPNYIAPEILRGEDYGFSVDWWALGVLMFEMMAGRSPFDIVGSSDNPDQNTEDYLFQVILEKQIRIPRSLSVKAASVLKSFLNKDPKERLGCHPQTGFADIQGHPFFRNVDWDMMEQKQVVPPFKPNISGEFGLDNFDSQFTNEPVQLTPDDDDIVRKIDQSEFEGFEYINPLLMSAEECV

## CCC1(c2ccccc2)C2=C(CC(C)(C)CC2=O)Nc2ncsc21 (stereo not shown) [Compound 1, 9-Ethyl-6,6-dimethyl-9-phenyl-5,6,7,9-tetrahydrothiazolo[4,5-b]quinolin-8(4H)-one]
[1]
  inhibition at 10 µM: -9.2%
[2]
  inhibition at 10 µM: 0.5%
[3]
  inhibition at 10 µM: -11.2%
[4]
  inhibition at 10 µM: -12.9%
[5]
  inhibition at 10 µM: -1.6%
[6]
  inhibition at 10 µM: 6%
[7]
  inhibition at 10 µM: 2.8%
[8]
  inhibition at 10 µM: 4.3%
[9]
  inhibition at 10 µM: 0.8%
[10]
  inhibition at 10 µM: -4.7%
[11]
  inhibition at 10 µM: 8.9%
[12]
  inhibition at 10 µM: 16.1%
[13]
  inhibition at 10 µM: -0.3%
[14]
  inhibition at 10 µM: -2.7%
[15]
  inhibition at 10 µM: 2.9%
[16]
  inhibition at 10 µM: 0.9%
[17]
  inhibition at 10 µM: -7.7%
[18]
  inhibition at 10 µM: -1%
[19]
  inhibition at 10 µM: -3.4%
[20]
  inhibition at 10 µM: -15.7%
[21]
  inhibition at 10 µM: 21.2%
[22]
  inhibition at 10 µM: -10.7%
[23]
  inhibition at 10 µM: -7.4%
[24]
  inhibition at 10 µM: 2.4%
[25]
  inhibition at 10 µM: 1%
[26]
  inhibition at 10 µM: 1.1%
[27]
  inhibition at 10 µM: -1.9%
[28]
  inhibition at 10 µM: -4.1%
[29]
  inhibition at 10 µM: 3.4%
[30]
  inhibition at 10 µM: 1.8%
[31]
  inhibition at 10 µM: -8%
[32]
  inhibition at 10 µM: 3.3%
[33]
  inhibition at 10 µM: 0.3%
[34]
  inhibition at 10 µM: 5.3%
[35]
  inhibition at 10 µM: -12.2%
[36]
  inhibition at 10 µM: 10.1%
[37]
  inhibition at 10 µM: -10.1%
[38]
  inhibition at 10 µM: -15.5%
[39]
  inhibition at 10 µM: 0.6%
[40]
  inhibition at 10 µM: -13.4%
